Experimental data as given in US20250281485A1, “DIAGNOSIS AND/OR TREATMENT OF HEART FAILURE WITH PRESERVED EJECTION FRACTION” (UNIVERSITEIT MAASTRICHT, priority 2022, published 2025).
Where two headings read alike, the source gives them in different places.

Experiments:
HFpEF patients [1] = conditions: JAMA 2020; cited from earlier work
sGC = biological target: T1, sGC (Homo sapiens, UniProt Q02108+Q02153); experiment: pVASP/VASP concentration response in fresh P-WBC, sGC stimulator; assay type: cell-based
T1 construct: P-WBC is isolated after a 800g centrifugation and treated with sGCs or sGCa; endogenous in cells; host or cells: fresh human platelet-enriched white-blood-cell fraction (P-WBC) from healthy volunteers
T1 sequence (Q02153 1-619): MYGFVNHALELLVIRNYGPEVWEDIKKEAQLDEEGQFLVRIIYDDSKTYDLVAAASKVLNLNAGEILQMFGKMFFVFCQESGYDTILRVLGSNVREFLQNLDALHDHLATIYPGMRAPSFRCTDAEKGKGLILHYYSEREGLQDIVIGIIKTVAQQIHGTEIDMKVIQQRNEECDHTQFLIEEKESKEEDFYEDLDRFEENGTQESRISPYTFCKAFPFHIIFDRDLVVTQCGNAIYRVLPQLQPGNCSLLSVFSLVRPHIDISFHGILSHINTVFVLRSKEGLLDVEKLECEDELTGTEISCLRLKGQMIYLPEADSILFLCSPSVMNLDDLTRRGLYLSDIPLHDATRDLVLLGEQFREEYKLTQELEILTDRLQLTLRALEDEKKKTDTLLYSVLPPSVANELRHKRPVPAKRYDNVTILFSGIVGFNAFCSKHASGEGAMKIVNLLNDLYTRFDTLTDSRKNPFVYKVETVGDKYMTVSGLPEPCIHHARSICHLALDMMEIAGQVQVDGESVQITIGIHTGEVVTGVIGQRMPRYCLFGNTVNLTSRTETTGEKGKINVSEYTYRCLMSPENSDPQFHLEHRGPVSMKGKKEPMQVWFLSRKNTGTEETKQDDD
T1 sequence (Q02108 1-690): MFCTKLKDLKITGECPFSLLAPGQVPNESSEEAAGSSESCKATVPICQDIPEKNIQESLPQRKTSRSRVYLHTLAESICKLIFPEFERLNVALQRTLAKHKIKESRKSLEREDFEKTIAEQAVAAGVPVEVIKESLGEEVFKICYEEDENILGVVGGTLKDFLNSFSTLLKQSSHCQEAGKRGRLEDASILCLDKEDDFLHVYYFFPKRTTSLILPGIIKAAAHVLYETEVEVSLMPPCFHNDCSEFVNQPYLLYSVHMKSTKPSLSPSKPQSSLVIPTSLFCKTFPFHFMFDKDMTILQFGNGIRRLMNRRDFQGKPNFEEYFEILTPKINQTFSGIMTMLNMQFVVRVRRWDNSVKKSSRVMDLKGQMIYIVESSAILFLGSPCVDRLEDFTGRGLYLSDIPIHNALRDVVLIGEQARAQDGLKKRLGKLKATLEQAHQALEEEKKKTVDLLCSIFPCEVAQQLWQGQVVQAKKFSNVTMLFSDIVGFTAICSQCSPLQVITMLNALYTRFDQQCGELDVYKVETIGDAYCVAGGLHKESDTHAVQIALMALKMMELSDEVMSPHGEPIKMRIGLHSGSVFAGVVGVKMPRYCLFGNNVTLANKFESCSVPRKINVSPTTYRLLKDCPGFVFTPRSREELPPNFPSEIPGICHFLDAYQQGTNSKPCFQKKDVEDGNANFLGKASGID
Protocol: (§1) Human blood was collected from healthy volunteers after obtaining informed consent according to the Declaration of Helsinki. An ethical approval was granted by the FHML Research Ethics Committee of Maastricht University (FHML-REC/2022/055). Whole blood (WB) was collected by venipuncture in ACD-A tubes (sodium citrate: 22.0 g/L, dextrose 24.5 g/L, citric acid: 8.0 g/L). Centrifugations in various speeds (200 g, 400g, 600g, 800g) were performed for 10 minutes in 18 degrees Celsius (acceleration 1, deceleration 0). Plasma was collected and P-WBC was carefully isolated (500 μl). Cell counting was performed with the automated haematology analyzer Sysmex XP-300. Subsequently, P-WBC was diluted with the same volume of JNL-buffer (130 mM NaCl, 3 mM KCl, 9 mM NaHCO3, 0.81 mM KH2PO4, 0.9 mM MgCI2, 10 mM sodium citrate, 6 mM dextrose, 10 mM Tris base, 2 mM HEPES) pH 7.4. Thereafter, 20 μl of diluted P-WBC were further diluted 1:5 with JNL-buffer for the cell treatments. Cell suspensions were treated with BAY 41-2272 (30 μM) and BAY 58-2667 (10 μM) for 10 minutes at 37° C., and with riociguat and runcaciguat for 15 minutes; in some cases with 10 minutes pretreatment with IBMX. Samples were centrifuged for 10 minutes at 750 g. […]
(§2) All data are expressed as mean±standard error of mean (SEM) of at least three independent experiments. […]

apo-sGC = biological target: T2, apo-sGC (Homo sapiens, UniProt Q02108+Q02153); experiment: pVASP/VASP concentration response in fresh P-WBC, sGC activator; assay type: cell-based
T2 construct: P-WBC is isolated after a 800g centrifugation and treated with sGCs or sGCa; endogenous in cells; host or cells: fresh human platelet-enriched white-blood-cell fraction (P-WBC) from healthy volunteers
T2 sequence (Q02153 1-619): T1 sequence (Q02153 1-619)
T2 sequence (Q02108 1-690): T1 sequence (Q02108 1-690)
Protocol: as §1, §2

HFpEF patients [2] = conditions: JAMA 2013; cited from earlier work
HFpEF patients [3] = conditions: JAMA 2020; cited from earlier work; remark: listed apart in the source
[4] = in the presence of 500 μM IBMX (FIG. 14D)

OC(CNc1nc(-c2cc(-c3ccon3)n(Cc3ccccc3F)n2)ncc1F)(C(F)(F)F)C(F)(F)F [Praliciguat]
trial outcome (HFpEF patients [1]): failed

COC(=O)N(C)c1c(N)nc(-c2nn(Cc3ccccc3F)c3ncccc23)nc1N [riociguat, Methyl N-[4,6-Diamino-2-[1-[(2-fluorophenyl)methyl]-1H-pyrazolo[3,4-b]pyridin-3-yl]-5-pyrimidinyl]-N-methyl-carbaminate]
concentration at which pVASP response peaked (sGC; [4]): 100 μM
concentration of maximum effect, pVASP concentration response curve (sGC; without IBMX (FIG. 14B)): > 100 μM

C[C@H]([C@H](C(=O)Nc1cc([C@@H](CC(=O)O)C2CC2)ccc1Cl)c1ccc(Cl)cc1)C(F)(F)F [runcaciguat]
concentration at which pVASP response peaked (apo-sGC; [4]): 1 μM
concentration of maximum effect, pVASP concentration response curve (apo-sGC; without IBMX (FIG. 14B)): 100 μM

CCCc1nn(C)c2c(=O)[nH]c(-c3cc(S(=O)(=O)N4CCN(C)CC4)ccc3OCC)nc12 [sildenafil]
trial outcome (HFpEF patients [2]): failure

COC(=O)Nc1c(N)nc(-c2nn(Cc3ccccc3F)c3ncc(F)cc23)nc1N [vericiguat, methyl N-[4,6-diamino-2-[5-fluoro-1-[(2-fluorophenyl)methyl]pyrazolo[3,4-b]pyridin-3-yl]pyrimidin-5-yl]carbamate]
trial outcome (HFpEF patients [3]): failed
